{
  "source": "patent US20080138834A1",
  "about": "“Cellular antagonists of GPCR physiology” (Institute Pasteur Korea, priority 2006, published 2008)",
  "key": {"HeLa cells": {"system": "HeLa cells", "assay": "Housekeeping endocytosis assay (BODIPY-FL dextran internalization)", "assay_type": "cell-based"}, "rat thoracic aorta": {"system": "rat thoracic aorta", "assay": "Ex-vivo rat thoracic aorta constriction-relaxation model", "conditions": "10 μM compound 30 min, then 40 nM endothelin; normalized to noradrenalin contraction", "method": "As previously described, male rats (Sprague-Dawley) weighing 300 to 400 g were anesthetized with sodium pentobarbital (50 mg/kg i.p.), and thoracic aorta was removed, cleaned of fat and connective tissue placed in Krebs bicarbonate solution (118 mM NaCl; 4.7 mM KCl; 25 mM NaHCO3; 2.5 mM CaCl2; 1.2 mM KH2PO4; 1.2 mM MgSO4; 11 mM glucose) bubbled with 95% O2 and 5% CO2^39,40. The whole aorta was cut along a close spiral to produce a strip of 5 to 6 cm long. The strip was mounted on a Grass force displacement transducer at a tension of 2 grams and placed in a 25 ml chamber maintained at 34° C. Following mounting of aorta strip on transducer, noradrenalin was added to a final concentration of 5 μM and increase of tension-constriction was recorded for 20 min. Subsequently, the noradrenalin was washed with 16 chamber volumes (400 ml) until tension returned to 2 grams. […] Tension was recorded throughout the experiment. […]\nTo correlate the effect of kinase inhibitors that perturb ETAR intracellular pathway and cAMP production to a physiological relevance we have examined compound effect(s) on the ex-vivo rat thoracic aorta constriction-relaxation model (^39, 40). […] Contractile responses were assessed after aortal strips were treated with 10 μM Gö6976, 10 μM Erbstatin A or 10 μM H-89 for 30 minutes followed by treatment with Endothelin. […]"}, "[1]": {"system": "ETAR: GFP expressing cells", "assay": "Single cell visual screening: red fluorescent dextran internalization in ETAR:GFP expressing cells", "assay_type": "cell-based", "conditions": "10 μM compound, 10 min red fluorescent dextran", "method": "Single cell differential screening. […] (b) 10 μM Erbstatin A. (c) 10 μM H-89 (d) DMSO (e) 40 nM endothelin-1 alone. Confocal images are from a 1 μm Z section. […] Scale bar 5 μm.\nThe effect of the 3 kinase inhibitors affecting ETAR on receptor activation and housekeeping endocytosis were simultaneously imaged in ETAR: GFP expressing cells by internalization of red fluorescent dextran (FIG. 3). […] Thus, inhibition of protein kinase A and C second messenger activated kinases potently altered ETAR GPCR internalization but left housekeeping endocytosis unaffected."}, "[2]": {"system": "M1 muscarinic acetylcholine receptor (M1AR)", "assay": "Agonist-induced M1AR endocytosis in polarized MDCK cells", "assay_type": "cell-based", "conditions": "10 μM compound, vs untreated agonist stimulated control", "method": "Sensitivity of GPCR internalization to kinase inhibitors acting on ETAR endocytosis. (a) Fully polarized MDCK cells expressing the M1AR were treated with 100 nM carbachol, DMSO, or compounds then fixed and stained with antibodies against the M1AR epitope tag (green) or the GP130 apical plasma marker (red). Cells were pretreated with compounds: 10 μM RO 31 8220, 10 μM Erbstatin A, 10 μM H-89, with 100 nM agonist, agonist alone or DMSO. Scale bar: 20 μm. (b) HEK293T cells expressing a human kappa Opioid receptor fusion to the green fluorescent protein were treated with 10 μM Gö 6976, 10 μM Erbstatin A, 10 μM H-89, 10 μM KT-5720 with 300 nM agonist, agonist alone or DMSO. Scale bar 20 μm. (c) Quantification of kappa Opioid receptor internalization (endosomes/cell) after compound treatment and agonist treatment.\nIf the involvement of second messenger kinases in agonist induced endocytosis of the ETAR was a generic feature of Gq coupled receptor activation, it may be expected that the kinase inhibitors affecting ETAR endocytosis may have effects on related receptors or related receptors in other cell lines. The kinase inhibitors that disrupted agonist induced ETAR endocytosis were assayed on agonist-induced endocytosis of the Gq/11 coupled M1 muscarinic acetylcholine receptor (M1AR). […]"}, "[3]": {"system": "human kappa Opioid receptor", "assay_type": "cell-based"}, "cAMP": {"system": "cAMP", "assay": "cAMP production after ET-1 stimulation, indirect ELISA", "assay_type": "cell-based", "conditions": "for effect on intra-cellular cAMP after ET-1 stimulation: 10 μM compound, 40 nM ET-1", "method": "cAMP production requires sequential G-protein activation.\nAll fine chemicals were purchased from Sigma-Aldrich. Fluorophores and their reactive forms were purchased from Molecular Probes (Eugene, USA). DRAQ5 was from BioStatus (Shepshed, UK). 40 kDa BODIPY-F1-dextran was synthesized from amino dextran using standard protocols. […] Kinase and phosphatase inhibitors were purchased as 95-99% pure 10 mM stock solutions in dimethylsulfoxide or water (Biomol Hamburg, Germany). Stock solutions and formatted assay plates were stored at −20° C. cAMP was measured by indirect ELISA (R & D systems, MN USA) following the manufacturers protocol for cAMP acetylation, and a cAMP standard.\nGPCRs can couple to multiple G-proteins and switching between G-proteins is generally mediated by protein phosphorylation^36-38. We assessed the importance of Gq coupling and PKC activity in the generation of intra-cellular cAMP through Gs following agonist stimulation."}, "[4]": {"conditions": "10 μM compound, fluorescent dextran uptake"}},
  "note": "Entries after “also recorded” stand apart in the source; their conditions may differ. Where two headings read alike, the source gives them in different places.",
  "data": [
    {"smiles": "CC(C)(C)c1cc(/C=C(\\C#N)C(N)=S)cc(C(C)(C)C)c1O", "note": "[AG-879]", "values": [
      {"measurement": "effect on housekeeping endocytosis (integrated intensity per cell)", "setting": "HeLa cells; 10 μM compound, data not shown", "result": "reduced"},
      {"measurement": "effect on housekeeping endocytosis (number of endosomes)", "setting": "HeLa cells; [4]", "result": "reduced the number of endosomes"}
    ]},
    {"smiles": "CN(C)CCCn1cc(C2=C(c3c[nH]c4ccccc34)C(=O)NC2=O)c2ccccc21", "note": "[GF 109203X]", "values": [
      {"measurement": "effect on housekeeping endocytosis (integrated intensity per cell)", "setting": "HeLa cells", "result": "reduced"},
      {"measurement": "effect on housekeeping endocytosis (number of endosomes)", "setting": "HeLa cells", "result": "reduced the number of endosomes; also recorded: blocked"}
    ]},
    {"smiles": "Cn1c2ccccc2c2c3c(c4c5ccccc5n(CCC#N)c4c21)CNC3=O", "note": "[Gö 6976]", "values": [
      {"measurement": "endothelin dependent aortal strip contraction vs endothelin alone", "setting": "rat thoracic aorta", "result": "increased contraction"}
    ]},
    {"smiles": "CC1CNCCN1S(=O)(=O)c1cccc2cnccc12", "note": "(stereo not shown) [H7]", "values": [
      {"measurement": "effect on housekeeping endocytosis (number of endosomes)", "setting": "HeLa cells; [4]", "result": "no significant effect"}
    ]},
    {"smiles": "O=S(=O)(NCCNC/C=C/c1ccc(Br)cc1)c1cccc2cnccc12", "note": "[H-89]", "values": [
      {"measurement": "effect on housekeeping endocytosis (number of endosomes)", "setting": "HeLa cells; [4]", "result": "None of these compounds had a measurable effect"},
      {"measurement": "housekeeping endocytosis, single cell imaging", "setting": "[1]", "result": "unaltered"},
      {"measurement": "agonist-induced M1AR endocytosis", "setting": "[2]", "result": "unaffected"},
      {"measurement": "effect on kOPr internalization", "setting": "[3]", "result": "moderate"},
      {"measurement": "effect on intra-cellular cAMP after ET-1 stimulation", "setting": "cAMP", "result": "markedly increased cAMP"},
      {"measurement": "increase of cellular cAMP", "setting": "cAMP; PKA inhibition with H-89, endothelin stimulated", "result": "two-fold"},
      {"measurement": "endothelin dependent aortal strip contraction vs endothelin alone", "setting": "rat thoracic aorta", "result": "significantly lower constriction"}
    ]},
    {"smiles": "CCCCCCOC(=O)[C@]1(O)C[C@@H]2O[C@@]1(C)n1c3ccccc3c3c4c(c5c6ccccc6n2c5c31)C(=O)NC4", "note": "[KT5720]", "values": [
      {"measurement": "effect on kOPr internalization", "setting": "[3]", "result": "pronounced stimulation of receptor uptake"}
    ]},
    {"smiles": "CCCCCCCCCCCCCCCC(=O)OC(CC(=O)O)C[N+](C)(C)C.[Cl-]", "note": "(stereo not drawn) [Palmitoyl DL carnitine chloride]", "values": [
      {"measurement": "effect on housekeeping endocytosis (number of endosomes)", "setting": "HeLa cells; [4]", "result": "no significant effect"}
    ]},
    {"smiles": "Cn1cc(C2=C(c3cn(CCCSC(=N)N)c4ccccc34)C(=O)NC2=O)c2ccccc21", "note": "[Ro 31-8220]", "values": [
      {"measurement": "effect on housekeeping endocytosis (number of endosomes)", "setting": "HeLa cells; [4]", "result": "None of these compounds had a measurable effect"},
      {"measurement": "effect on housekeeping endocytosis (number of endosomes)", "setting": "HeLa cells; 10 μM compound, fluorescent dextran uptake, listed as Ro 31 8220", "result": "no significant effect"},
      {"measurement": "housekeeping endocytosis, single cell imaging", "setting": "[1]", "result": "unaffected"},
      {"measurement": "agonist-induced M1AR endocytosis", "setting": "[2]", "result": "unaffected"},
      {"measurement": "effect on intra-cellular cAMP after ET-1 stimulation", "setting": "cAMP", "result": "blocked cAMP production"}
    ]},
    {"smiles": "CC[C@H](C)[C@H](NC(=O)[C@H](CC(=O)O)NC(=O)[C@H](CC(C)C)NC(=O)[C@H](Cc1c[nH]cn1)NC(=O)[C@@H]1CSSC[C@H](N)C(=O)N[C@@H](CO)C(=O)N[C@H]2CSSC[C@H](NC(=O)[C@H](CCC(=O)O)NC(=O)[C@H](CCCCN)NC(=O)[C@H](CC(=O)O)NC(=O)[C@H](CCSC)NC(=O)[C@H](CC(C)C)NC(=O)[C@H](CO)NC(=O)[C@H](CO)NC2=O)C(=O)N[C@@H](C(C)C)C(=O)N[C@@H](Cc2ccc(O)cc2)C(=O)N[C@@H](Cc2ccccc2)C(=O)N1)C(=O)N[C@H](C(=O)N[C@@H](Cc1c[nH]c2ccccc12)C(=O)O)[C@@H](C)CC", "note": "[endothelin-1]", "values": [
      {"measurement": "intra-cellular cAMP after stimulation with ET-1 alone", "setting": "cAMP; 40 nM ET-1, after 10 min", "result": "robust increase in intra-cellular cAMP"},
      {"measurement": "time of peak in cAMP production following stimulation", "setting": "cAMP; endothelin stimulation", "result": 20, "unit": "min"}
    ]},
    {"smiles": "Cc1cc(O)c2c(=O)c3c(O)cc(O)c4c5c(O)cc(O)c6c(=O)c7c(O)cc(C)c8c1c2c(c34)c(c78)c65", "note": "[hypericine]", "values": [
      {"measurement": "housekeeping endocytosis compared to control", "setting": "HeLa cells", "result": 0.2, "unit": "fold"}
    ]},
    {"smiles": "CC(=O)c1c(O)c(C)c(O)c(Cc2c(O)c3c(c(C(=O)/C=C/c4ccccc4)c2O)OC(C)(C)C=C3)c1O", "note": "[rottlerin]", "values": [
      {"measurement": "effect on housekeeping endocytosis (number of endosomes)", "setting": "HeLa cells", "result": "no effect"}
    ]},
    {"smiles": "CN[C@@H]1C[C@H]2O[C@@](C)([C@@H]1OC)n1c3ccccc3c3c4c(c5c6ccccc6n2c5c31)C(=O)NC4", "note": "[staurosporine]", "values": [
      {"measurement": "effect on housekeeping endocytosis (integrated intensity per cell)", "setting": "HeLa cells; 10 μM compound, data not shown", "result": "reduced"},
      {"measurement": "effect on housekeeping endocytosis (number of endosomes)", "setting": "HeLa cells; [4]", "result": "reduced the number of endosomes; also recorded: inhibited"}
    ]},
    {"smiles": "CC(C)(C)c1cc(C=C(C#N)C#N)cc(C(C)(C)C)c1O", "note": "[tyrphostin 9]", "values": [
      {"measurement": "effect on housekeeping endocytosis (integrated intensity per cell)", "setting": "HeLa cells; 10 μM compound, data not shown", "result": "reduced"},
      {"measurement": "effect on housekeeping endocytosis (number of endosomes)", "setting": "HeLa cells; [4]", "result": "reduced the number of endosomes"}
    ]}
  ]
}
